The values below come from the OligoGym collection.

HELM strings list units from the 5' end as sugar, base in round brackets, then linkage (d deoxyribose, r ribose, m 2'-O-methyl, p phosphodiester). Strings are as the collection lists them; they lack the last nucleoside at the 3' end of the tested compound. [moe] = 2'-O-(2-methoxyethyl) (MOE); [sp] = phosphorothioate linkage; [m5C] = 5-methylcytosine

In this series the target is SCN2A. Briefly: mouse, dose not given. The following applies: ASO.
Substance “RNA1{[moe](G)[sp].[moe]([m5C])p.[moe]([m5C])p.[moe](A)p.d(T)[sp].d(T)[sp].d(T)[sp].d([m5C])[sp].d(T)[sp].d(A)[sp].d(T)[sp].d(A)[sp].d(A)[sp].d([m5C])[sp].[moe](T)p.[moe]([m5C])p.[moe](A)p.[moe](G)[sp].[moe]([m5C])}$$$$ (last 3' nucleoside missing)” came in with a 3 h FOB score of 0 score 0-7.
Under “RNA1{[moe](T)[sp].[moe]([m5C])p.[moe]([m5C])p.[moe](A)p.[moe]([m5C])p.[moe](G)p.d(A)[sp].d([m5C])[sp].d(A)[sp].d(T)[sp].d(A)[sp].d(T)[sp].d(T)[sp].d(T)[sp].d(T)[sp].d(T)[sp].[moe]([m5C])p.[moe](T)[sp].[moe](A)}$$$$ (last 3' nucleoside missing)” stands 0 score 0-7; under “RNA1{[moe](A)[sp].[moe](G)p.[moe](T)p.[moe](T)p.d(T)[sp].d(T)[sp].d(T)[sp].d(T)[sp].d([m5C])[sp].d(A)[sp].d(T)[sp].d(T)[sp].d(G)[sp].d([m5C])[sp].[moe](A)p.[moe](T)p.[moe]([m5C])p.[moe]([m5C])[sp].[moe](T)}$$$$ (last 3' nucleoside missing)”, 3 score 0-7; under “RNA1{[moe](G)[sp].[moe]([m5C])p.[moe](A)p.[moe](T)p.[moe](G)[sp].d(T)[sp].d(A)[sp].d(A)[sp].d([m5C])[sp].d([m5C])[sp].d(T)[sp].d(T)[sp].d(T)[sp].[moe](A)p.[moe](T)p.[moe](A)[sp].[moe]([m5C])}$$$$ (last 3' nucleoside missing)”, 0 score 0-7.
“RNA1{[moe](A)[sp].[moe](T)p.[moe](G)p.[moe](T)p.[moe](A)p.[moe](A)p.d([m5C])[sp].d([m5C])[sp].d(T)[sp].d(T)[sp].d(T)[sp].d(A)[sp].d(T)[sp].d(A)[sp].d([m5C])[sp].d(A)[sp].[moe](T)p.[moe](T)[sp].[moe](T)}$$$$ (last 3' nucleoside missing)” displayed a 3 h FOB score of 0 score 0-7.
For “RNA1{[moe](A)[sp].[moe]([m5C])p.[moe]([m5C])p.[moe](A)p.d([m5C])[sp].d(G)[sp].d([m5C])[sp].d(T)[sp].d(T)[sp].d(A)[sp].d([m5C])[sp].d(A)[sp].d(T)[sp].d([m5C])[sp].[moe](A)p.[moe](A)p.[moe](A)p.[moe]([m5C])[sp].[moe](A)}$$$$ (last 3' nucleoside missing)” the value was 0 score 0-7; for “RNA1{[moe](G)[sp].[moe](T)p.[moe](A)p.[moe](A)p.d(T)[sp].d([m5C])[sp].d(A)[sp].d([m5C])[sp].d(T)[sp].d(T)[sp].d(T)[sp].d([m5C])[sp].d(A)[sp].d(T)[sp].[moe]([m5C])p.[moe]([m5C])p.[moe](A)p.[moe]([m5C])[sp].[moe](G)}$$$$ (last 3' nucleoside missing)”, 2 score 0-7; for “RNA1{[moe]([m5C])[sp].[moe](T)p.[moe](G)p.[moe]([m5C])p.[moe](A)[sp].d(T)[sp].d(G)[sp].d(T)[sp].d(A)[sp].d(A)[sp].d([m5C])[sp].d([m5C])[sp].d(T)[sp].[moe](T)p.[moe](T)p.[moe](A)[sp].[moe](T)}$$$$ (last 3' nucleoside missing)”, 0.5 score 0-7.
In turn, “RNA1{[moe](T)[sp].[moe](A)p.[moe](T)p.[moe](T)p.d(T)[sp].d(T)[sp].d(T)[sp].d([m5C])[sp].d(T)[sp].d(A)[sp].d([m5C])[sp].d(A)[sp].d([m5C])[sp].d(T)[sp].[moe](G)p.[moe]([m5C])p.[moe](T)p.[moe](G)[sp].[moe]([m5C])}$$$$ (last 3' nucleoside missing)” showed a 3 h FOB score of 0 score 0-7.
The substance “RNA1{[moe](T)[sp].[moe](G)p.[moe](G)p.[moe](A)p.[moe]([m5C])p.d([m5C])[sp].d(G)[sp].d(T)[sp].d([m5C])[sp].d(T)[sp].d([m5C])[sp].d(T)[sp].d(T)[sp].d(T)[sp].d([m5C])[sp].[moe](T)p.[moe](T)p.[moe](A)[sp].[moe](T)}$$$$ (last 3' nucleoside missing)” had a 3 h FOB score of 1 score 0-7.
Under “RNA1{[moe](G)[sp].[moe]([m5C])p.[moe](A)p.[moe](T)p.[moe](G)p.[moe](T)p.d(T)[sp].d(T)[sp].d(A)[sp].d(T)[sp].d([m5C])[sp].d(T)[sp].d(T)[sp].d(A)[sp].d(G)[sp].d(T)[sp].[moe](T)p.[moe]([m5C])[sp].[moe](T)}$$$$ (last 3' nucleoside missing)” stands 1.67 score 0-7.
For “RNA1{[moe](A)[sp].[moe](T)p.[moe](T)p.[moe]([m5C])p.[moe](T)p.d(A)[sp].d(T)[sp].d(T)[sp].d(T)[sp].d(T)[sp].d(A)[sp].d(T)[sp].d(A)[sp].d(A)[sp].d(A)[sp].[moe](T)p.[moe](G)p.[moe]([m5C])[sp].[moe]([m5C])}$$$$ (last 3' nucleoside missing)” the value was 1 score 0-7; for “RNA1{[moe](T)[sp].[moe](A)p.[moe](A)p.[moe](T)p.[moe]([m5C])p.[moe](A)p.d([m5C])[sp].d(T)[sp].d(T)[sp].d(T)[sp].d([m5C])[sp].d(A)[sp].d(T)[sp].d([m5C])[sp].d([m5C])[sp].d(A)[sp].[moe]([m5C])p.[moe](G)[sp].[moe](A)}$$$$ (last 3' nucleoside missing)”, 0 score 0-7; for “RNA1{[moe](T)[sp].[moe]([m5C])p.[moe](A)p.[moe](G)p.d([m5C])[sp].d(A)[sp].d(T)[sp].d(G)[sp].d(T)[sp].d(T)[sp].d(T)[sp].d(A)[sp].d(T)[sp].d([m5C])[sp].[moe](T)p.[moe](T)p.[moe](A)p.[moe](G)[sp].[moe](T)}$$$$ (last 3' nucleoside missing)”, 2.33 score 0-7.
In turn, “RNA1{[moe](T)[sp].[moe](G)p.[moe]([m5C])p.[moe](A)p.[moe](T)[sp].d(G)[sp].d(T)[sp].d(A)[sp].d(A)[sp].d([m5C])[sp].d([m5C])[sp].d(T)[sp].d(T)[sp].[moe](T)p.[moe](A)p.[moe](T)[sp].[moe](A)}$$$$ (last 3' nucleoside missing)” came in with a 3 h FOB score of 0 score 0-7.
Under “RNA1{[moe](A)[sp].[moe]([m5C])p.[moe](A)p.[moe](T)p.[moe](A)p.[moe](T)p.d(T)[sp].d(T)[sp].d(T)[sp].d(T)[sp].d([m5C])[sp].d(T)[sp].d(A)[sp].d([m5C])[sp].d(A)[sp].d([m5C])[sp].[moe](T)p.[moe](G)[sp].[moe]([m5C])}$$$$ (last 3' nucleoside missing)” stands 0 score 0-7.
Regarding “RNA1{[moe]([m5C])[sp].[moe](T)p.[moe](G)p.[moe]([m5C])p.[moe](A)p.d(T)[sp].d(G)[sp].d(T)[sp].d(A)[sp].d(A)[sp].d([m5C])[sp].d([m5C])[sp].d(T)[sp].d(T)[sp].d(T)[sp].[moe](A)p.[moe](T)p.[moe](A)[sp].[moe]([m5C])}$$$$ (last 3' nucleoside missing)”, the 3 h FOB score worked out at 0 score 0-7.
In turn, “RNA1{[moe]([m5C])[sp].[moe](A)p.[moe](T)p.[moe](G)p.[moe](T)p.[moe](A)p.d(A)[sp].d([m5C])[sp].d([m5C])[sp].d(T)[sp].d(T)[sp].d(T)[sp].d(A)[sp].d(T)[sp].d(A)[sp].d([m5C])[sp].[moe](A)p.[moe](T)[sp].[moe](T)}$$$$ (last 3' nucleoside missing)” came in with a 3 h FOB score of 0 score 0-7.
Under “RNA1{[moe]([m5C])[sp].[moe](A)p.[moe](T)p.[moe](G)p.d(T)[sp].d(A)[sp].d(A)[sp].d(T)[sp].d([m5C])[sp].d(A)[sp].d([m5C])[sp].d(T)[sp].d(T)[sp].d(T)[sp].[moe]([m5C])p.[moe](A)p.[moe](T)p.[moe]([m5C])[sp].[moe]([m5C])}$$$$ (last 3' nucleoside missing)” stands 0 score 0-7; under “RNA1{[moe](A)[sp].[moe](T)p.[moe](T)p.[moe](T)p.[moe]([m5C])p.d(T)[sp].d(A)[sp].d(T)[sp].d(A)[sp].d(A)[sp].d([m5C])[sp].d(T)[sp].d([m5C])[sp].d(A)[sp].d(G)[sp].[moe]([m5C])p.[moe](A)p.[moe](A)[sp].[moe]([m5C])}$$$$ (last 3' nucleoside missing)”, 0 score 0-7; under “RNA1{[moe](A)[sp].[moe](A)p.[moe](T)p.[moe]([m5C])p.[moe](A)p.[moe]([m5C])p.d(T)[sp].d(T)[sp].d(T)[sp].d([m5C])[sp].d(A)[sp].d(T)[sp].d([m5C])[sp].d([m5C])[sp].d(A)[sp].d([m5C])[sp].[moe](G)p.[moe](A)[sp].[moe]([m5C])}$$$$ (last 3' nucleoside missing)”, 0 score 0-7.
On to “RNA1{[moe](T)[sp].[moe]([m5C])p.[moe](T)p.[moe](G)p.[moe]([m5C])p.[moe](A)[sp].d(T)[sp].d(G)[sp].d(T)[sp].d(A)[sp].d(A)[sp].d([m5C])[sp].d([m5C])[sp].d(T)[sp].[moe](T)p.[moe](T)[sp].[moe](A)}$$$$ (last 3' nucleoside missing)”, for which the 3 h FOB score stood at 0.33 score 0-7.
In turn, “RNA1{[moe]([m5C])[sp].[moe](T)p.[moe](A)p.[moe](T)[sp].d(T)[sp].d(T)[sp].d(T)[sp].d(A)[sp].d(T)[sp].d(A)[sp].d(A)[sp].d(A)[sp].[moe](T)p.[moe](G)p.[moe]([m5C])p.[moe]([m5C])[sp].[moe](G)}$$$$ (last 3' nucleoside missing)” showed a 3 h FOB score of 0 score 0-7.
For the substance “RNA1{[moe]([m5C])[sp].[moe](T)p.[moe](G)p.[moe](G)p.d(A)[sp].d([m5C])[sp].d([m5C])[sp].d(G)[sp].d(T)[sp].d([m5C])[sp].d(T)[sp].d([m5C])[sp].d(T)[sp].d(T)[sp].[moe](T)p.[moe]([m5C])p.[moe](T)p.[moe](T)[sp].[moe](A)}$$$$ (last 3' nucleoside missing)”, the 3 h FOB score came out at 1 score 0-7.
For “RNA1{[moe](T)[sp].[moe]([m5C])p.[moe](A)p.[moe](T)p.[moe](G)p.d([m5C])[sp].d(A)[sp].d(T)[sp].d(A)[sp].d(A)[sp].d(T)[sp].d([m5C])[sp].d([m5C])[sp].d([m5C])[sp].d(A)[sp].[moe](T)p.[moe](T)p.[moe](A)[sp].[moe](T)}$$$$ (last 3' nucleoside missing)” the value was 0 score 0-7; for “RNA1{[moe](T)[sp].[moe](G)p.[moe]([m5C])p.[moe](A)p.[moe](T)p.[moe](G)[sp].d(T)[sp].d(A)[sp].d(A)[sp].d([m5C])[sp].d([m5C])[sp].d(T)[sp].d(T)[sp].d(T)[sp].[moe](A)p.[moe](T)[sp].[moe](A)}$$$$ (last 3' nucleoside missing)”, 0 score 0-7.
